These results are taken from patent US4540517A, “Antibiotic TAN-420” (Takeda Chemical Industries, Ltd., priority 1982, dated 1985).

One data set deals with Escherichia coli K12. The data set is described as follows: Agar dilution assay, antimicrobial activity. In kind it is cell-based. On the procedure:
(§1) The antimicrobial activity of Antibiotic TAN-420B, C, D and E was assayed by the agar dilution method using Typticase soy agar (Baltimore Biological Laboratories, U.S.A.) as the test medium.

Data set [1] deals with Staphylococcus aureus FDA 209P. The data set is described as follows: Agar dilution assay, antimicrobial activity. To be noted: FDA209P, read-out: Minimal inhibitory concentration. Format: cell-based. Here is the method:
as §1
Background: In agar dilution the substance is mixed into plates at graded concentrations.

For the next data set, the system named is B. megaterium IFO 12108. Kind of data set: Agar dilution assay, antimicrobial activity. To be noted: Priestia megaterium. Format: cell-based. Here is the method:
as §1

In the next data set the test system is B. cereus IFO 3514. The data set is described as follows: Agar dilution assay, antimicrobial activity. Format: cell-based. Particulars: Bacillus cereus. Here is the method:
as §1

Data set [2] has as its system Pseudomonas aeruginosa IFO 3080. Kind of data set: Agar dilution assay, antimicrobial activity. In kind it is cell-based. On the procedure: as §1
In the next data set the test system is B. brevis IFO 3331. Kind of data set: Agar dilution assay, antimicrobial activity. Particulars: Brevibacillus brevis. Format: cell-based. Here is the method:
as §1

A further data set concerns B. pumilus IFO 3813. The data set is described as follows: Agar dilution assay, antimicrobial activity. To be noted: Bacillus pumilus. In kind it is cell-based. Here is the method: as §1
Data set [3] deals with Bacillus subtilis PCI 219. Kind of data set: Agar dilution assay, antimicrobial activity. In kind it is cell-based. On the procedure: as §1
Data set [4] has as its system Micrococcus flavus IFO 3242. The data set is described as follows: Agar dilution assay, antimicrobial activity. Format: cell-based. On the procedure:
as §1

Data set [5] can be described thus: Acute toxicity (mouse, intraperitoneal). To be noted: in vivo, ip. Here is the method:
As regards the acute toxocity of Antibiotic TAN-420 (mouse, intraperitoneal), the LD50 value of TAN-420C was 200 to 400 mg/kg, that of TAN-420D was 100 mg/kg, and that of TAN-420E was 50 mg/kg. It is therefore, considered that the toxicity of Antibiotic TAN-420 is low.

Data set [6] in a line: Toxicity compared with herbimycin A. To be noted: comparison in words.
Another data set relates to Tetrahymena pyriformis W. The data set is described as follows: Liquid dilution assay of antiprotozoal activity. In kind it is cell-based. To be noted: read-out: minimal inhibitory concentration.
In data set [7] the test system is gram-positive bacteria, fungi and protozoae. The data set is described as follows: Antimicrobial activity (general statement). To be noted: considered, relative to TAN-420B.
The conditions of data set [8]: known from Journal of Antibiotics 32, 255-261 (1979), Tetrahedron Letters No. 44, 4323-4326 (1979); cited from earlier work.
Setting [9] is: agar dilution, Escherichia coli K12, read-out: Minimal inhibitory concentration.
Where [10] appears, read: agar dilution, Staphylococcus aureus FDA 209P.
The mark [11] stands for this setting: IFO12108, agar dilution, B. megaterium IFO 12108, read-out: Minimal inhibitory concentration.
[12] abbreviates: IFO3514, agar dilution, B. cereus IFO 3514, read-out: Minimal inhibitory concentration.
The mark [13] stands for this setting: IFO3080, agar dilution, Pseudomonas aeruginosa IFO 3080, read-out: Minimal inhibitory concentration.
The mark [14] stands for this setting: IFO3331, agar dilution, B. brevis IFO 3331, read-out: Minimal inhibitory concentration.
The mark [15] stands for this setting: IFO3813, agar dilution, B. pumilus IFO 3813, read-out: Minimal inhibitory concentration.
Where [16] appears, read: PCI219, agar dilution, Bacillus subtilis PCI 219, read-out: Minimal inhibitory concentration.
Setting [17] is: IFO3242, agar dilution, Micrococcus flavus IFO 3242, read-out: Minimal inhibitory concentration.
Setting [18] is: liquid dilution assay, Tetrahymena pyriformis W.

Each structure is given as a SMILES string. Values after ≈ are worked out from the molar mass of the structure shown. Like-named read-outs stand apart in the source and are kept apart here.

With `COC1C=CC=C(C)C(=O)NC2=CC(=O)C=C(C2=O)C(OC)C(C)CC(OC)C(O)C(C)C=C(C)C1OC(N)=O` (stereo not drawn) [TAN-420D], the MIC in the data set with Escherichia coli K12 (setting [9]) was over 100 µg/mL; in [1] (setting [10]) it was 100 µg/mL (≈ 178 µM); in the data set on B. megaterium IFO 12108 (setting [11]), 100 µg/mL (≈ 178 µM); in the data set on B. cereus IFO 3514 (setting [12]), 100 µg/mL (≈ 178 µM); in data set [2] (setting [13]), over 100 µg/mL; with B. brevis IFO 3331 (setting [14]), 50 µg/mL (≈ 89.2 µM). The MIC with B. pumilus IFO 3813 (setting [15]) was 100 µg/mL (≈ 178 µM); in data set [3] (setting [16]) it was over 100 µg/mL; in data set [4] (setting [17]), 25 µg/mL (≈ 44.6 µM); in the data set on Tetrahymena pyriformis W (setting [18]), 4 µg/mL (≈ 7.13 µM). For the same molecule, in [5], the LD50 was 100 mg/kg. Moreover, the “toxicity relative to herbimycin A” value in [6] is on record as “lower than that of herbimycin A”.

Turning to `COC1C=CC=C(C)C(=O)Nc2cc(O)cc(c2O)C(OC)C(C)CC(OC)C(O)C(C)C=C(C)C1OC(N)=O` (stereo not drawn) [TAN-420C], the MIC in the data set on Escherichia coli K12 (setting [9]) was over 100 µg/mL; in [1] (setting [10]) it was 100 µg/mL (≈ 178 µM); in the data set on B. megaterium IFO 12108 (setting [11]), 100 µg/mL (≈ 178 µM); in the data set on B. cereus IFO 3514 (setting [12]), 100 µg/mL (≈ 178 µM); in data set [2] (setting [13]), over 100 µg/mL; with B. brevis IFO 3331 (setting [14]), 50 µg/mL (≈ 88.9 µM). Besides, the MIC in the data set with B. pumilus IFO 3813 (setting [15]) was 100 µg/mL (≈ 178 µM); in data set [3] (setting [16]) it was over 100 µg/mL; in data set [4] (setting [17]) it was 25 µg/mL (≈ 44.4 µM); in the data set on Tetrahymena pyriformis W (setting [18]), 10 µg/mL (≈ 17.8 µM). This molecule registered an LD50 in data set [5] of 200 to 400 mg/kg. In data set [6], the “toxicity relative to herbimycin A” value is “lower than that of herbimycin A”.

In the case of `COC1C=CC=C(C)C(=O)Nc2cc(O)cc(c2O)C(OC)C(C)CC(O)C(O)C(C)C=C(C)C1OC(N)=O` (stereo not drawn) [TAN-420A], the antimicrobial activity result in data set [7] is reported as “of the same order as that of TAN-420B”.

On to `COC1C=CC=C(C)C(=O)NC2=CC(=O)C=C(C2=O)C(OC)C(C)CC(O)C(O)C(C)C=C(C)C1OC(N)=O` (stereo not drawn) [TAN-420B], for which the MIC was over 100 µg/mL with Escherichia coli K12 (Escherichia coli, K12, read-out: Minimal inhibitory concentration); 100 µg/mL (≈ 183 µM) in data set [1] (Staphylococcus aureus); 100 µg/mL (≈ 183 µM) in the data set on B. megaterium IFO 12108 (IFO12108, read-out: Minimal inhibitory concentration); 100 µg/mL (≈ 183 µM) in the data set with B. cereus IFO 3514 (IFO3514, read-out: Minimal inhibitory concentration); over 100 µg/mL in data set [2] (Pseudomonas aeruginosa, IFO3080, read-out: Minimal inhibitory concentration); 50 µg/mL (≈ 91.5 µM) in the data set on B. brevis IFO 3331 (IFO3331, read-out: Minimal inhibitory concentration). Moreover, the MIC in the data set with B. pumilus IFO 3813 (IFO3813, read-out: Minimal inhibitory concentration) was 100 µg/mL (≈ 183 µM); in [3] (Bacillus subtilis, PCI219, read-out: Minimal inhibitory concentration), over 100 µg/mL; in [4] (Micrococcus flavus, IFO3242, read-out: Minimal inhibitory concentration), 25 µg/mL (≈ 45.7 µM); in the data set with Tetrahymena pyriformis W (Tetrahymena pyriformis), 40 µg/mL (≈ 73.2 µM).

As to `COC1C=CC=C(C)C(=O)NC2=CC(=O)C=C(C2=O)C(OC)C(C)CC(OC)C(OC)C(C)C=C(C)C1OC(N)=O` (stereo not drawn) [herbimycin A], the herbicidal activity result in data set [8] is “has herbicidal activity”.

`COC1C=CC=C(C)C(=O)Nc2cc(O)cc(c2O)C(OC)C(C)CC(OC)C(OC)C(C)C=C(C)C1OC(N)=O` (stereo not drawn) [TAN-420E]: the MIC was over 100 µg/mL in the data set on Escherichia coli K12 (setting [9]); 100 µg/mL (≈ 173 µM) in data set [1] (setting [10]); 50 µg/mL (≈ 86.7 µM) in the data set on B. megaterium IFO 12108 (setting [11]); 100 µg/mL (≈ 173 µM) in the data set on B. cereus IFO 3514 (setting [12]); over 100 µg/mL in data set [2] (setting [13]); 50 µg/mL (≈ 86.7 µM) in the data set with B. brevis IFO 3331 (setting [14]). For the same molecule, the MIC in the data set with B. pumilus IFO 3813 (setting [15]) came to 100 µg/mL (≈ 173 µM); in data set [3] (setting [16]), 100 µg/mL (≈ 173 µM); in data set [4] (setting [17]) it was 50 µg/mL (≈ 86.7 µM); with Tetrahymena pyriformis W (setting [18]), 2 µg/mL (≈ 3.47 µM). In addition, in [5], the LD50 came out at 50 mg/kg. For the same molecule, the “toxicity relative to herbimycin A” value in data set [6] is on record as “lower than that of herbimycin A”.

Usually LD50 stands for the dose expected to kill half of the subjects tested. Low values mean greater toxicity, high ones lower toxicity.
